#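 1) Cells in 96-well plates. 2) Compound, 48 h, 5 concentrations. 3) Linear interpolation between surrounding doses. 4) Unreached endpoint = highest concentration. The concentration for 50% growth inhibition is given as GI50. TGI: concentration producing complete growth inhibition.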
# Columns and labels:
# Assay in all cases: DTP human tumour cell line panel, 48 h
# [1] = test system: CAKI-1 renal
# [2] = test system: DMS 273 small cell lung
# [3] = test system: HCC-2998 colon
# [4] = test system: HCT-116 colon
# [5] = test system: LXFL 529 NSCLC
# [6] = test system: SF-268 CNS
# [7] = test system: HOP-92 NSCLC
# [8] = test system: BT-549 breast
# [9] = test system: MCF7 breast
# [10] = test system: T-47D breast
Structure (SMILES),TGI [1] [µM],TGI [2] [µM],TGI [3] [µM],TGI [4] [µM],TGI [5] [µM],TGI [6] [µM],TGI [7] [µM],GI50 [8] [µM],TGI [8] [µM],GI50 [1] [µM],GI50 [3] [µM],GI50 [4] [µM],GI50 [7] [µM],GI50 [9] [µM],TGI [9] [µM],GI50 [6] [µM],GI50 [10] [µM],TGI [10] [µM]
COc1cc2ccc(CC(=O)O)cc2cc1OC,> 100,> 100,> 100,> 100,> 100,> 100,,,,,,,,,,,,
O=S1(=O)CS(=O)(=O)OCCCCCO1,> 100,> 100,> 100,> 100,> 100,> 100,> 100,,,,,,,,,,,
COc1cc2c(c(OC)c1OC)-c1ccc(SC)c(=O)cc1C(CC(=O)Oc1ccccc1F)C2 (stereo not drawn),> 7.5,,0.373,0.0644,> 7.5,> 7.5,> 7.5,,,,,,,,,,,
Cc1cc(N(CCC#N)CCC#N)ccc1/C=C1N=C(/C=C\c2ccccc2)N(c2ccc(C(=O)O)cc2)C\1=O,> 100,,,> 100,> 100,> 100,> 100,,,,,,,,,,,
CC1(C)O[C@@H](CCl)C[C@@H](C#N)O1,> 100,> 100,> 100,> 100,,> 100,> 100,,,,,,,,,,,
COc1ccc(C2NC(c3ccc(OC)cc3)C(C)C(=O)C2C)cc1 (stereo not drawn),,> 100,> 100,> 100,> 100,> 100,> 100,,,,,,,,,,,
c1ccc(-c2nc3ccccc3[nH]2)c(OCCCCCOc2ccccc2-c2nc3ccccc3[nH]2)c1,29.9,,67.2,3.24,,23.2,14.7,13.5,33.3,12.5,16.1,1.64,2.55,2.3,7.51,3.44,3.18,18.6
COc1cc(OC)c(OC)cc1/C=C\c1ccnc2ccccc12,> 79.5,,17.8,54.8,> 100,> 86.2,45,,> 100,,,,,,> 100,,,> 100
COc1ccc(-c2nc3sccn3c2/C=C/C(=O)c2cc(OC)c(OC)c(OC)c2)cc1,> 100,,14.4,12.6,,> 100,4.59,2.56,> 28.7,2.02,3.03,2.19,0.4,1.85,> 100,2.76,1.86,8.28
CCOC(=O)c1cnc2c(ccc3ncccc32)c1OCC,,> 100,> 100,> 100,> 100,> 100,,,,,,,,,,,,
O=C(/C=C/c1ccccn1)c1ccccc1,12.3,,29.9,3.77,,36.4,23.6,14.4,27.6,3.28,15.4,1.49,10.4,2.07,8.46,19.4,4.87,24.4
C=C(c1ccc(C(=O)NCCCn2ccnc2)cc1)c1cc2c(cc1C)C(C)(C)CCC2(C)C,> 51.2,,3.85,1.79,,> 100,7.26,3.14,14.9,1.47,0.419,0.0398,1.62,1.25,13.8,3.83,0.281,6.76
COc1cc(C(=O)/C=C/c2c(C)n([O-])c3ccc(Cl)cc3[n+]2=O)cc(OC)c1OC,> 100,,38.7,12.2,,98.7,> 100,11,> 100,10.3,12.8,2.75,4.47,3.37,> 100,3.53,3.18,27.9
Clc1cc(Cl)cc(Nc2ccc3c(OCCCN4CCOCC4)cccc3n2)c1,22.9,,3.51,3.56,,9.63,6.94,6.93,20,7.59,1.82,1.82,2.03,1.74,3.48,3,4.91,18.2
O=[N+]([O-])/C(=C/C=C/c1ccccc1)c1ccccc1,3.06,,4.14,3.62,,8.93,3.8,1.91,4.1,0.805,1.92,1.88,1.54,1.48,4.23,2.96,2.07,5.28
OCCN1CCCN(CCCN2c3ccccc3Sc3ccc(C(F)(F)F)cc32)CC1,6.26,,3.33,4.49,,15.5,7.63,5.93,20.4,2.3,1.81,2.1,1.73,1.6,3.14,3.6,2.21,5.39
